Results published in US20070225268A1, “METHOD TO TREAT NEOPLASMS VIA GADOLINIUM STEREOTACTIC SYNCHROTRON RADIATION” (priority 2005, published 2007).
Values joined by “and” are separate entries in the source; they are usually repeats but may differ in a detail not shown here. Identical values can stand only once.

Experiments:
[1] = test system: glioblastoma multiforme cell nuclei; test: In vivo biodistribution of Gd-DTPA in glioblastoma multiforme patients (ICP-MS, spectromicroscopy); parameters: species or system human; conditions: six glioblastoma multiforme patients injected with Gd-DTPA before tumor excision
Source text: The present inventors also tested the in vivo biodistribution of Gd-DTPA in six glioblastoma multiforme patients injected with Gd-DTPA before tumor excision. The tumors were frozen and sectioned for ICP-MS and Microscope à Emission de Photoélectrons par Illumination Synchrotronique de Type Onduleur analysis. Evidence for Gd intracellular localization was found within the tumors in all six cases. However, the gadolinium localized in only 6.1% of the cell nuclei analyzed.

F98 brain glioma = conditions: intracranial infusion one day before 78.8 keV photons, 15 Gy single dose; cited from earlier work
[2] = test system: human glioblastoma multiforme cell lines; test: Cell appearance after exposure in culture; format: cell-based; conditions: 100 μmol/L, up to 72 hours
Procedure: (§1) Cell Culture and Exposure to Motexafin Gadolinium: Four well-established human glioblastoma multiforme cell lines were used for the in vitro studies: T98G (22), U87 (23), MO59K (24), and TB10 (9, 25). Cells were grown on precut 10 mm×10 mm silicon wafers (Silson, Northhampton, United Kingdom) for X-PEEM spectromicroscopy; on 1 mm×1 mm Si3N4 windows, 100 nm thick (Silson) for STXM spectromicroscopy; on tissue culture-treated polystyrene slides for confocal microscopy; and in Petri dishes for ICP-MS analysis. Subconfluent cultures were exposed to motexafin gadolinium (Pharmacyclics, Sunnyvale, Calif.), formulated at 2.3 mg/mL in 5% aqueous mannitol, and added to the culture medium to a final concentration of 100 μmol/L. Six different exposure times ranging from 0 to 72 hours were used for the ICP-MS time course measurements. For all microscopy experiments exposure times were kept constant at 72 hours. The cell appearance was not altered by motexafin gadolinium exposure.

T98G cells = test: STXM spectromicroscopy of intranuclear Gd; format: cell-based, human; conditions: 34 T98G cells, 100 μmol/L, 72 hours
Procedure: as §1
(§2) After exposure to motexafin gadolinium, the cell cultures on Si substrates for X-PEEM analysis were washed three times with PBS solution to remove free Gd, fixed in 4% paraformaldehyde in PBS for 20 minutes, double-washed in Milli-Q-water, and air dried. At this point, some cell cultures were sputtered with 3-kV argon ions at 10^−5 Torr for 10 minutes; others were not. Sputtering removes the topmost portion of the cell to reveal the inner nuclear compartment of fixed cells (26). Sputtered and unsputtered cells were then ashed in UV/O3 for 140 hours (27). Parallel cultures were run and treated identically for ICP-MS measurements of the bulk Gd concentration. Cell cultures for STXM analysis on Si3N4 windows, after motexafin gadolinium exposure, were washed, fixed, washed, and air-dried. […]
(§3) STXM Spectromicroscopy Analysis: The STXM instrument on beamline 11.0.2 at the Advanced Light Source in Berkeley uses an undulator source and is optimized for the Gd3d absorption energy. […] Three cell cultures were analyzed, containing 34 T98G cells, 27 MO59K cells, and 139 TB10 cells, respectively. […]

TB10 cells [3] = test: STXM spectromicroscopy of intranuclear Gd; format: cell-based, human; conditions: 139 TB10 cells, 100 μmol/L, 72 hours
Procedure: as §1, §2, §3

MO59K cells = test: STXM spectromicroscopy of intranuclear Gd; format: cell-based, human; conditions: 27 MO59K cells, 100 μmol/L, 72 hours
Procedure: as §1, §2, §3

TB10 cells [4] = test: X-PEEM (SPHINX) spectromicroscopy of intranuclear Gd; format: cell-based, human
Procedure: as §1
as §2, with “(27).” for “(27). Parallel cultures were run and treated identically for ICP-MS measurements of the bulk Gd concentration. Cell cultures for STXM analysis on Si3N4 windows, after motexafin gadolinium exposure, were washed, fixed, washed, and air-dried.”
X-PEEM Spectromicroscopy Analysis: X-PEEM spectromicroscopy analysis was done using the Spectromicroscope for Photoelectron Imaging of Nanostructures with X-rays (SPHINX) instrument (Elmitec GmbH, Clausthal, Germany), installed on the HERMON beamline at the Synchrotron Radiation Center (Madison, Wis.). […] Cell and tissue ashing increases gadolinium concentration by a factor of 10; therefore, the detection limit was on the order of ≦100 ppm in all cells analyzed. […]

[5] = test system: T98G, MO59K and TB10 cells; test: STXM spectromicroscopy of intranuclear Gd, all cells analyzed; format: cell-based, human; conditions: overall, n=200
Procedure: as §1, with “exposure. […]” for “exposure.”
as §3

[6] = test system: TB10, MO59K and T98G cells; test: Confocal fluorescence microscopy of motexafin gadolinium-related fluorescence; format: cell-based, human; conditions: n=481, 100 μmol/L, 72 hours
Procedure: Cell Culture and Exposure to Motexafin Gadolinium: Four well-established human glioblastoma multiforme cell lines were used for the in vitro studies: T98G (22), U87 (23), MO59K (24), and TB10 (9, 25). Cells were grown on precut 10 mm×10 mm silicon wafers (Silson, Northhampton, United Kingdom) for X-PEEM spectromicroscopy; on 1 mm×1 mm Si3N4 windows, 100 nm thick (Silson) for STXM spectromicroscopy; on tissue culture-treated polystyrene slides for confocal microscopy; and in Petri dishes for ICP-MS analysis. […]
Confocal Microscopy: Three of the four cell lines (TB10, MO59K, and T98G) were analyzed using a Bio-Rad (Richmond, Calif.) MRC 1024ES confocal microscope. This instrument can simultaneously measure the fluorescence from three channels, with excitation wavelengths from the three lines of a krypton/argon laser and emission through three independent barrier filters. […]
The aperture was set for minimal optical section thickness, and laser power and photodetector gain were set to image cell fluorescence within the 8-bit grayscale range of the photodetector. Five consecutive optical sections were obtained vertically through the cells to verify that motexafin gadolinium fluorescence originated from the nucleus and not only from the cytoplasm above or below the nucleus.

[7] = ICP-MS of Gd in tissue and plasma of glioblastoma multiforme patients; format: in vivo, human
Procedure: Tissue samples from three glioblastoma multiforme patients were also analyzed with ICP-MS (Table 1). These were collected from glioblastoma multiforme tissue and plasma for patients 1 and 2, and from tumor necrotic and uninvolved brain areas for the postmortem patient 3. All gadolinium concentrations were normalized to the measured tissue weight and volume. […]

Compound: O=C([O-])CN(CCN(CC(=O)[O-])CC(=O)O)CCN(CC(=O)[O-])CC(=O)O.[Gd+3] [Gd-DTPA, gadolinium diethylenetriaminepentaacetic acid]
- percentage of cell nuclei analyzed in which gadolinium localized [1]: 6.1%

Compound: N.N.[Cl][Pt][Cl] [cis-platinum]
- survival rate at one year (F98 brain glioma): 34%

Compound: motexafin gadolinium
- cell appearance [2]: not altered
- percentage of cells containing gadolinium in their nuclei (T98G cells): 90%
- percentage of cells containing gadolinium in their nuclei (TB10 cells [3]): 88%
- percentage of cells containing gadolinium in their nuclei (MO59K cells): 96%
- percentage of Gd-containing nuclei (TB10 cells [4]; TB10, after sputtering (72 cells)): 88%
- percentage of Gd-containing nuclei (TB10 cells [4]; TB10, before sputtering (unsputtered, 108 cells)): 92%
- percentage of cells with at least one gadolinium pixel in the nucleus (TB10 cells [4]; TB10, n=180, 100 μmol/L, 72 hours): 90%
- percentage of cells with at least one gadolinium pixel in their nuclei [5]: 90%
- percentage of cells exhibiting motexafin gadolinium-related fluorescence in cytoplasm and nuclei [6]: 100%
- [Gd] ([7]; Patient 1, Plasma, 2:30 hrs, single dose 10 mg/kg): 3.415 ppm
- [Gd] ([7]; Patient 1, Plasma, 5 min, single dose 10 mg/kg): 12.973 ppm
- [Gd] ([7]; Patient 1, Plasma, 45 min, single dose 10 mg/kg): 7.349 ppm
- [Gd] ([7]; Patient 1, Plasma, 3 hrs, single dose 10 mg/kg): 4.079 ppm
- [Gd] ([7]; Patient 1, Plasma, 24 hrs, single dose 10 mg/kg): 1.700 ppm
- [Gd] ([7]; Patient 1, Tumor, 2:30 hrs, single dose 10 mg/kg): 7.266 ppm
- [Gd] ([7]; Patient 1, Tumor, 3 hrs, single dose 10 mg/kg): 2.475 ppm
- [Gd] ([7]; Patient 2, Plasma, 1:14 hrs, single dose 10 mg/kg): 6.536 ppm
- [Gd] ([7]; Patient 2, Plasma, 1:30 hrs, single dose 10 mg/kg): 6.309 ppm
- [Gd] ([7]; Patient 2, Plasma, 5 min, single dose 10 mg/kg): 14.043 ppm
- [Gd] ([7]; Patient 2, Plasma, 45 min, single dose 10 mg/kg): 8.143 ppm
- [Gd] ([7]; Patient 2, Plasma, 3 hrs, single dose 10 mg/kg): 5.109 ppm
- [Gd] ([7]; Patient 2, Plasma, 24 hrs, single dose 10 mg/kg): 1.770 ppm
- [Gd] ([7]; Patient 2, Tumor, 1:11 hrs, single dose 10 mg/kg): 29.728 ppm
- [Gd] ([7]; Patient 2, Tumor, 1:18 hrs, single dose 10 mg/kg): 19.580 ppm
- [Gd] ([7]; Patient 2, Tumor, 45 min, single dose 10 mg/kg): 22.589 ppm
- [Gd] ([7]; Patient 3 (autopsy), Necrosis within tumor, 57 days after the last of multiple doses): 2.144 ppm
- [Gd] ([7]; Patient 3 (autopsy), Tumor, 57 days after the last of multiple doses, listed as Motexafin-Gd): 8.542 ppm and 8.022 ppm
